Source: patent US20250283074A1, “CLUSTERIN OVEREXPRESSION IN ALZHEIMER’S DISEASE” (University of Virginia Patent Foundation, priority 2021, published 2025)
Entries after “also recorded” stand apart in the source; their conditions may differ.

Experiments:
APP/PS1 model of AD = conditions: cited from earlier work
[1] = tested on: clusterin expression in the corpus callosum; test: Cuprizone model of demyelination, clusterin immunofluorescence in the corpus callosum; type: in vivo; conditions: 5 weeks cuprizone diet then 1 week normal chow vs naïve mouse
Excerpt: FIG. 9A is a photomicrograph showing clusterin expression (white) in the corpus callosum of a naïve mouse and a mouse following 5-weeks of cuprizone diet followed by 1-week of normal chow to allow remyelination to begin. FIG. 9B is a bar graph showing quantification of clusterin coverage of the corpus callosum depicted in FIG. 9A. N=1 independent experiment, n=5 mice per group. Data analyzed using an unpaired t-test. ***p<0.001. Error bars represent standard error of the mean.
Based on preliminary data, it is anticipated that genetic and the therapeutic silencing of clusterin ameliorate the pathology observed in the 5×FAD mice. If a difference in the number of oligodendrocytes and myelination is undetected, the 5×FAD are tested with the cuprizone model of demyelination. Diet supplemented with cuprizone (5 weeks at 0.3% w/w) induces extensive demyelination of the medial corpus callosum (Doucette et al., 2010). However, demyelination induced in this manner is reversible, as remyelination occurs following the removal of the drug. […] Sections of the medial corpus callosum (midline region above the for mix and between the lateral ventricles) are stained as proposed herein above to quantify OPCs and oligodendrocytes at the end of cuprizone treatment as well as 0.5, 1, 1.5, and 2 weeks following the removal of cuprizone, as described (see Fernandez-Castaneda et al., 2020).

[2] = tested on: clusterin expression in OPCs; test: Clusterin expression in treated primary OPCs by qPCR; type: cell-based, mouse; conditions: for effect of phagocytosis block on clusterin upregulation by myelin debris or apoptotic cells in OPCs: Cytochalasin D 1 μM with 100 μg/ml myelin debris; for clusterin expression in OPCs by qPCR (FIG. 7): 10 ng/ml TNFα 3 h, 10 μM H2O2 3 h, 3 μM Aβ 2 h, apoptotic cells 1:1 6 h, 100 μg/ml myelin debris 4 h; for clusterin expression in OPCs by qPCR (FIG. 12): 4-hour in vitro treatment: 3 μM Aβ, 100 μg/ml myelin, 10 ng/ml TNFα or IFNγ, 10 μM H2O2
Experimental: FIGS. 7A-7F: Macromolecules and protein aggregates cause OPCs to upregulate clusterin. OPCs treated with 10 ng/ml TNFα for 3 hours (FIG. 7A), 10 μM H2O2 for 3 hours (FIG. 7B), 3 μM […] for 2 hours (FIG. 7C), a 1:1 ratio of apoptotic cells for 6 hours (FIG. 7D), 100 μg/ml myelin debris for 4 hours (FIG. 7E), or 100 μg/ml myelin debris and 1 μM Cytochalasin D for 4 hours (FIG. 7F). Clusterin transcript quantity was measured using qPCR. N=1-2 independent experiments. n=4-8 samples/condition. All data was analyzed using a repeated measures t-test. ns: not significant; CytoD: Cytochalasin D. *p<0.05, **p<0.01.
FIGS. 12A-12I: Phagocytosis of extracellular debris drives clusterin expression in OPCs. FIG. 12A. Representative images of OPCs (PDGFRα in green, Olig2 in red) surrounding Aβ plaques (n=4; Scale bar=20 μm). FIG. 12B. Representative orthogonal view of CypHer-labeled Aβ (white) inside an OPC (PDGFRα in green. Olig2 in red) following injection of Aβ (n=6; Scale bar=10 μm). Representative images (FIG. 12C) and quantification (FIG. 12D) of clusterin expression (red) in the ipsilateral (CypHer-Aβ injected: green) and contralateral (FITC injected; green) hemispheres following injection (n=6 mice: Scale bar=100 μm) FIG. 12E. qPCR analysis of clusterin expression in OPCs following a 4-hour in vitro treatment with 3 μM Aβ and the phagocytosis blocker CytoD (1 μM) or vehicle control (n=24). f, Quantification of clusterin protein in OPCs following 72-hour treatment with 3 μM Aβ or vehicle control (n=10). qPCR analysis of clusterin expression in OPCs following a 4-hour in vitro treatment with 100 μg/ml myelin (FIG. 12G), cytokines (10 ng/ml TNFα or 10 ng/ml IFNγ; FIG. 12H) or 10 μM H2O2 (FIG. 12I) and CytoD (1 μM) or vehicle control (n=4-19).
Oligomeric […] Drives Expression of Clusterin in OPCs Given the impact of clusterin on OPCs differentiation in vitro, and the evidence supporting that myelin is impacted in AD (Roher et al., 2002; Desai et al., 2009; Desai et al., 2010; Zhan et al., 2014), we wanted to understand what factors initiate expression of clusterin in OPCs. We treated primary OPCs with TNFa, H2O2, oligomeric Aβ, myelin debris, and apoptotic cells and monitored expression of clusterin by qPCR. These treatments were selected because of their association with AD pathology (Sengupta et al., 2016; Ahmad et al., 2017; Chang et al., 2017). […] In order to test if phagocytosis was required to mediate the upregulation of clusterin, the same experiment was repeated in the presence of Cytochalasin D to block actin polymerization and prevent engulfment (Axline & Reaven, 1974; Soldati & Schliwa, 2006).
We next investigated whether Aβ treatment increases clusterin expression in OPCs. […] We noted that increase in clusterin expression was not specific to the phagocytic clearance of Aβ oligomers, as we also observed it when OPCs engulfed cellular debris.

OPCs (OLIG2+/PDGFRα+) = test: Tamoxifen-induced YFP labelling of OPCs in PDGFRα-CreER; R26-EYFP reporter mice; type: in vivo, mouse; conditions: 2 tamoxifen injections 3 days apart, counted ten days after the first injection, adult mice
Experimental: FIG. 1A is a representative image of YFP labeled OPCs (PDGFRα+Olig2+) cells following 2 tamoxifen injections. […] FIG. 1B is a graph of percent of OPCs expressing YFP following 0, 1, 2, or 3 tamoxifen injections. Each injection was given 3 days apart. n=2-3 mice/group.
To investigate the optimal dose of tamoxifen required for the reporter expression, we treated adult mice (6 weeks old) with 1, 2, or 3 tamoxifen injections (each injection was administered 3 days apart) and counted the number of YFP positive OPCs (OLIG2+/PDGFRα+) ten days after the first injection (see FIG. 1B).

clusterin = conditions: patients with prostate cancer, Phase 3 clinical trial; cited from earlier work
OPCs [3] = test: OPC differentiation into oligodendrocytes, myelin marker expression by qPCR; type: cell-based, mouse; conditions: differentiating conditions, 3 days
Experimental: (§1) FIGS. 13A-13G: Exogenous clusterin inhibits OPC differentiation. Expression of Mbp (FIG. 13A), Plp1 (FIG. 13B), Cnp (FIG. 13C), and Myrf (FIG. 13D), measured by qPCR in OPCs or OLGs treated with vehicle or 8 μg/ml of clusterin for 72 hours (n=7). Representative images (FIG. 13E) and quantification (FIG. 13F) of MBP expression in cells treated with or without 8 μg/ml of clusterin for 72 hours (n=5: Scale bar=50 μm). FIG. 13G. Quantification of OPCs viability following a 72 hours incubation with or without 8 μg/ml clusterin (n=11).
(§2) FIGS. 14A-14D: Clusterin inhibits differentiation by blocking IL-9 production. FIG. 14A. Quantification of cytokines present in the supernatant from OPCs treated with 8 μg/mL clusterin or vehicle control (n=6). Expression of Mbp (FIG. 14B), Plp1 (FIG. 14C), and Myrf (FIG. 14D), measured by qPCR in OPCs cultured in proliferation media (OPC Vehicle), differentiation media supplemented with vehicle (OLG Vehicle), or 8 μg/ml of is clusterin (OLG CLU), or 100 ng/ml IL-9 (OLG IL-9), or 8 μg/ml of clusterin and 100 ng/ml IL-9 (OLG CLU+IL-9) for 72 hours (n=11).
OPCs were prepared from neurospheres as previously described (Franco et al., 2015) and subsequently switched into differentiating conditions in the presence of recombinant clusterin (8 μg/ml) or vehicle (PBS) for 3 days. […]

OPCs [4] = test: OPC differentiation, MBP positive oligolineage cells by immunofluorescence; type: cell-based, mouse; conditions: clusterin 8 μg/ml, 72 hours, differentiation media
Experimental: (§3) FIGS. 6A-6D: Clusterin inhibits OPC differentiation. FIG. 6A is a series of bar graphs showing expression of Mbp, Pip1, Cnp, and Myrf, measured by qPCR in cells cultured in proliferation media (OPC_Veh), differentiation media (OLG_Veh), or differentiation media supplemented with 8 μg/ml of clusterin (OLG_Clu). Data was analyzed using a mixed-effects analysis followed by a Tukey's multiple comparisons test. N=3 individual experiments, n=7 samples per group. FIG. 6B is a series of representative fluorescence micrograph images of cells cultured in differentiation media (Vehicle) or differentiation media supplemented with 8 μg/ml of clusterin (Clusterin). […] FIG. 6C is a bar graph of the quantification of the differentiation efficiency of cells depicted in FIG. 6B. […] Data was is analyzed using a repeated measures t-test. […]
as §1, with “FIG. 13G.” left out, “(n=11). […]” for “(n=11).”

IL-9 secretion by OPCs = test: Luminex Assay on the supernatant of OPCs (cytokine and growth factor secretion); type: cell-based, mouse; conditions: clusterin 8 μg/mL vs vehicle
Experimental: as §2
We next investigated what factors might be mediating clusterin's inhibition of OPC differentiation.
To identify whether clusterin can modify the composition of the OPC secretome, an unbiased multiplex analysis on the conditioned media of OPCs treated with vehicle or clusterin for 1-3 days was performed. […] IL-9 is a growth factor for T-cell subsets 64, and IL-9 receptor is expressed by OPCs in vivo. However, production and secretion of IL-9 by OPCs has not been previously reported.

OPCs [5] = test: OPC viability, CCK8 assay; type: cell-based, mouse; conditions: clusterin 8 μg/ml, 72 hours
Experimental: as §3
as §1, with “FIG. 13G.” left out, “(n=11). […]” for “(n=11).”

## CN1CCC[C@@H]1CCO[C@](C)(c1ccccc1)c1ccc(Cl)cc1 [Clemastine]
APP/PS1 model of AD
  myelin integrity and memory performance: improved both myelin integrity and memory performance

## O=C(NN=C1CCCCC1)C(=O)NN=C1CCCCC1 [Cuprizone]
[1]
  clusterin expression in the corpus callosum: upregulated

## C=C1[C@@H](C)[C@H]2[C@H](Cc3ccccc3)NC(=O)[C@]23[C@H](OC(C)=O)/C=C/[C@@](C)(O)C(=O)[C@@H](C)C/C=C/[C@H]3[C@@H]1O [Cytochalasin D]
[2]; CytoD 1 μM with 3 μM Aβ, 4 hours
  effect of phagocytosis block on Aβ-induced clusterin upregulation in OPCs: prevented Aβ from increasing clusterin production in OPCs
[2]; 4 hours
  effect of phagocytosis block on clusterin upregulation by myelin debris or apoptotic cells in OPCs: internalization of the cargo is necessary to mediate the upregulation of clusterin
[2]; 4 hours, listed as CytoD
  effect of phagocytosis block on clusterin upregulation by myelin debris or apoptotic cells in OPCs: abrogated

## OO [H2O2]
[2]
  clusterin expression in OPCs by qPCR (FIG. 7): did not influence clusterin expression
  clusterin expression in OPCs by qPCR (FIG. 12): failed to induce changes in clusterin expression

## CC/C(=C(\c1ccccc1)c1ccc(OCCN(C)C)cc1)c1ccccc1 [tamoxifen]
OPCs (OLIG2+/PDGFRα+)
  percent of OPCs expressing YFP: 95%

## Custirsen: ASO targeting clusterin in Phase 3 clinical trial; OGX-011 is 5-CAGCAGCAGAGTCTTCATCAT-3′ (SEQ ID NO: 11) (listed as DNA, chemistry not given here; listed as Homo sapiens)
clusterin
  levels of clusterin in patients: safely and effectively reduce levels of clusterin

## IL-9: interleukin 9 cytokine added exogenously (100 ng/ml) to differentiating OPCs
OPCs [3]; IL-9 100 ng/ml plus clusterin 8 μg/ml
  Expression of Mbp, Plp, and Myrf by qPCR in clusterin-treated OPCs supplemented with IL-9: prevented clusterin inhibition; also recorded: restored expression of these mature oligodendrocyte genes to a level similar as the untreated control

## TNFα
[2]
  clusterin expression in OPCs by qPCR (FIG. 7): did not influence clusterin expression
  clusterin expression in OPCs by qPCR (FIG. 12): failed to induce changes in clusterin expression

## clusterin: recombinant clusterin, a secreted chaperone protein, containing an HIS-tag, added exogenously to OPCs
OPCs [4]
  percentage of MBP positive oligolineage cells (immunofluorescence): decrease; also recorded: fewer MBP-positive oligodendrocytes
IL-9 secretion by OPCs
  secretion of growth factors and cytokines by OPCs: altered secretion of multiple proteins
IL-9 secretion by OPCs; 1-3 days
  IL-9 secretion by OPCs: marked reduction; also recorded: blocked IL-9 release from OPCs
OPCs [3]; recombinant clusterin 8 μg/ml vs vehicle (PBS)
  Expression of myelin markers (Mbp, Plp, Cnp, and Myrf) as determined by qPCR: decreased; also recorded: striking decrease; also recorded: blocks OPC differentiation
OPCs [5]
  OPC viability: did not impact OPC viability; also recorded: not due to OPC death

B1: IFNγ: cytokine upregulated in Alzheimer's disease, 10 ng/ml (protein, UniProt P01579 24-161, looked up)
Interferon gamma: QDPYVKEAENLKKYFNAGHSDVADNGTLFLGILKNWKEESDRKIMQSQIVSFYFKLFKNFKDDQSIQKSVETIKEDMNVKFFNSNKKKRDDFEKLTNYSVTDLNVQRKAIHELIQVMAELSPAAKTGKRKRSQMLFRG
[2]
  clusterin expression in OPCs by qPCR (FIG. 12): failed to induce changes in clusterin expression
